{"source": "ChEMBL document CHEMBL1149941", "about": "“The design and synthesis of novel hydroxyproline inhibitors of HIV-1 proteinase” (Bioorg Med Chem Lett, 1993)", "data": [{"molecular_target": "Human immunodeficiency virus type 1 protease (Human immunodeficiency virus 1, UniProt Q72874)", "experiment": "Inhibitory activity against HIV-1 proteinase", "units": {"IC50": "µM"}, "values": [{"molecule": "CC(C)CN1CC(O)(CNC(=O)[C@H]2N[C@@H]([C@H](NC(=O)Cc3ccccc3)C(=O)NCc3ccccc3)SC2(C)C)C[C@H]1C(=O)NC(C)(C)C", "note": "(stereo not given in full)", "IC50": 0.07}, {"molecule": "CC(C)CN1CC(O)(CNC(=O)[C@@H]2N[C@@H]([C@H](NC(=O)Cc3ccccc3)C(=O)NCc3ccccc3)SC2(C)C)C[C@H]1C(=O)NC(C)(C)C", "note": "(stereo not given in full)", "IC50": 0.03}, {"molecule": "CC(C)CN1C[C@](O)([C@H](CC2CCCCC2)NC(=O)CC(C)(C)C)C[C@H]1C(=O)NC(C)(C)C", "IC50": 9}, {"molecule": "CC(C)CN1CC(O)(CNC(=O)OC(C)(C)C)C[C@@H]1C(=O)NC(C)(C)C", "note": "(stereo not given in full)", "IC50": "> 90"}, {"molecule": "CC(C)CN1CC(O)(CNC(=O)OC(C)(C)C)C[C@H]1C(=O)NC(C)(C)C", "note": "(stereo not given in full)", "IC50": "> 90"}]}]}
